Where two headings read alike, the source gives them in different places.
Experiments:
[1] = target: T1, Cyclooxygenase-1 (Mus musculus, UniProt P22437); experiment: COX-1 assay: calcimycin-stimulated 6-keto-PGF1 production in mouse peritoneal macrophages (RIA); format: cell-based, mice; settings: calcimycin 1 μmol/L 1 h, 6-keto-PGF1 by RIA
T1 construct: endogenous in cells; host or cells: thioglycollate-elicited peritoneal macrophages of male C57BL-6J mice
T1 sequence (P22437 27-602): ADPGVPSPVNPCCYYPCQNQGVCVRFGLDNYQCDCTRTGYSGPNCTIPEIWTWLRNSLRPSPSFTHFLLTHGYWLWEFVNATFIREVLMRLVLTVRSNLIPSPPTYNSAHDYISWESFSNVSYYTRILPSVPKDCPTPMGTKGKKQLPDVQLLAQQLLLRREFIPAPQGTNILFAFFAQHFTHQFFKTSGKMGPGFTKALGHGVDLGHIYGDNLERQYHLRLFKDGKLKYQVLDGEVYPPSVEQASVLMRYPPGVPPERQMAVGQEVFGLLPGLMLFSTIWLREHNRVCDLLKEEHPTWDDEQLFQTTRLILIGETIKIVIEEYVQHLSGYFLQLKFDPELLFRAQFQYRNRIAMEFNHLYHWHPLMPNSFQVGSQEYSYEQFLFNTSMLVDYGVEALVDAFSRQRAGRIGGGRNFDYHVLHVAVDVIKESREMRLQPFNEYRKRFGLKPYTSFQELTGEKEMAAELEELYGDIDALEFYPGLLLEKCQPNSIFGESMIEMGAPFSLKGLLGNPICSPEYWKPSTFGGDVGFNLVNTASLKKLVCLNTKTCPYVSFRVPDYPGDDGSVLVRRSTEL
Method: Cell culture: Adherent macrophages were harvested from the peritoneal cells of male mice (C57BL-6J, Level 2, from Experiment Animal Center, Academy of Military Medical Science) 3 d after the injection (ip) of brewer thioglycollate medium (5 mL/100 g body weight). Shortly, peritoneal cells obtained from 3˜4 mice were mixed and seeded in 48 well cell culture cluster (Costar) at a cell density of 1×10^9 cell/L in RPMI-1640 supplemented with 5% (v/v) newborn calf serum, 100 ku/L penicillin and […] streptomycin. After settlement for 2˜3 h, non-adherent cells were washed by D-Hanks' balanced salt solution. Then macrophages were cultured in RPMI-1640 without serum. Almost all of adherent cells were macrophages as assessed by Giemsa staining. Cell viability was examined by trypan blue dye exclusion. All incubation procedures were performed with 5% CO2 in humidified air at 37° C.
COX-1: assay Macrophages were incubated with test compound at different concentrations or solvent (Me2SO) for 1 h and were stimulated with calcimycin 1 μmol·L^−1 for 1 h. The amount of 6-keto-PGF1[…] (a stable metabolite of PGI2) in supernatants was measured by RIA according to manufacturer's guide. The inhibitory ratio was calculated as
(§1) [formula] Cs, Ct, Cc refer to 6-keto-PGF1[…] concentration in supernatants of calcimycin, test compound, and control groups, respectively.
(§2) Statistical analysis: Data were expressed as the mean±SD of more than three independent experiments. Dose-inhibitory effect curves were fit through “uphill dose response curves, variable slope” using Prism, GraphPad version3.00: […]

[2] = target: T2, Cyclooxygenase-2 (Mus musculus, UniProt Q05769); experiment: COX-2 assay: LPS-stimulated PGE2 production in mouse peritoneal macrophages (RIA); format: cell-based, mice; settings: for IC50: mouse peritoneal macrophages, LPS 1 mg/L 9 h, PGE2 by RIA; for COX-1/COX-2: ratio of IC50 COX-1 to IC50 COX-2
T2 construct: endogenous in cells; host or cells: thioglycollate-elicited peritoneal macrophages of male C57BL-6J mice
T2 sequence (Q05769 18-604): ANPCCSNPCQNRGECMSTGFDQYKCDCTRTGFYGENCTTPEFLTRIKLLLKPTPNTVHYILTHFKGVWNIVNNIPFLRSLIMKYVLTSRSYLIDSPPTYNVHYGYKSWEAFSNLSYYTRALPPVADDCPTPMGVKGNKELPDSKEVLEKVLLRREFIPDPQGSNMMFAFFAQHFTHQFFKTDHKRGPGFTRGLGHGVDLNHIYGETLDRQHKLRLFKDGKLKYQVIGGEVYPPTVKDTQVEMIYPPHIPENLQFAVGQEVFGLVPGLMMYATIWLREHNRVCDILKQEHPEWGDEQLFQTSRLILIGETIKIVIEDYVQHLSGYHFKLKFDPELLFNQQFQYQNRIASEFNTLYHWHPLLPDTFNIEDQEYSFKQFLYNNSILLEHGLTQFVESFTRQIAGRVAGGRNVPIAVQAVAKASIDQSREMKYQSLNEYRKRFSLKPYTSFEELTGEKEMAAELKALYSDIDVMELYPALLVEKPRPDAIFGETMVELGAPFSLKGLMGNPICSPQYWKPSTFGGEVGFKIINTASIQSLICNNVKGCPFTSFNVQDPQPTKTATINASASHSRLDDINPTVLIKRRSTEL
Method: Cell culture: Adherent macrophages were harvested from the peritoneal cells of male mice (C57BL-6J, Level 2, from Experiment Animal Center, Academy of Military Medical Science) 3 d after the injection (ip) of brewer thioglycollate medium (5 mL/100 g body weight). […] After settlement for 2˜3 h, non-adherent cells were washed by D-Hanks' balanced salt solution. […] Cell viability was examined by trypan blue dye exclusion. All incubation procedures were performed with 5% CO2 in humidified air at 37° C.
COX-2 assay: Macrophages were incubated with test compound at different concentrations or solvent (Me2SO) for 1 h and were stimulated with LPS 1 mg/L for 9 h. The amount of PGE2 in supernatants was measured by RIA. The inhibitory ratio was calculated using the same formula as in COX-1 assay section. Cs, Ct, Cc refer to PGE2 concentration in supernatants of LPS, test compound, and control groups, respectively.
as §1, §2

[3] = test system: rat carrageenan-induced foot pad edema; experiment: Rat carrageenan-induced foot pad edema assay; format: in vivo, rats; settings: 10 mg/kg oral
Method: Male Sprgue-Dawley rats (190–220 g) were fasted with free access to water at least 16 h prior to experiments. The rats were dosed orally with a 1 ml suspension of test compound in vehicle (0.5% methyl cellulose and 0.025% Tween-20) or with vehicle alone. One hour later a subplantar injection of 0.1 ml of 1% solution of caarageenan in 0.9% strile saline was administered to the right hind foot pad. Paw volume was measured with a displacement plethysmometer 2, 3, and 4 h after caarageenan injection.

[4] = 3 h after carrageenan, read-out: inhibitory percentage of edema, 3 hr
[5] = 4 h after carrageenan, read-out: inhibitory percentage of edema, 4 hr

| IC50 [1] [nM] | IC50 [2] [nM] | COX-1/COX-2 [2] | Compound | inhibition at 10 mg/kg [3, 4] [%] | inhibition at 10 mg/kg [3, 5] [%] |
| --- | --- | --- | --- | --- | --- |
| 236 | 94.8 | 2.5 | Cc1ccc(C2=C(c3ccc(S(C)(=O)=O)cc3)CN(C3CC3)C2=O)cc1 [Example 125, N-Cyclopropyl-3-(4-methylphenyl)-4-(4-methylsulfonylphenyl)-2,5-dihydropyrrole-2-one] | 34.1 | 31.1 |
| 200 | 13.8 | 14.5 | CN1CC(c2ccc(S(C)(=O)=O)cc2)=C(c2ccc(F)cc2)C1=O [Example 120, N-Methyl-3-(4-fluorophenyl)-4-(4-methylsulfonylphenyl)-2,5-dihydropyrrole-2-one] | 39.2 | 26.2 |
| 502 | 28.6 | – | CCCN1CC(c2ccc(S(C)(=O)=O)cc2)=C(c2ccc(F)cc2)C1=O [Example 123, N-Propyl-3-(4-fluorophenyl)-4-(4-methylsulfonylphenyl)-2,5-dihydropyrrole-2-one] | 49.6 | 50.3 |
| 159 | 24.2 | 6.6 | CN1CC(c2ccc(S(C)(=O)=O)cc2)=C(c2ccc(Cl)cc2)C1=O [Example 117, N-Methyl-3-(4-chlorophenyl)-4-(4-methylsulfonylphenyl)-2,5-dihydropyrrole-2-one] | 48.2 | 59.3 |
| – | 783 | – | CCCN1CC(c2cccc(Cl)c2)=C(c2ccc(S(C)(=O)=O)cc2)C1=O [Example 110, N-Propyl-3-(4-methylsulfonylphenyl)-4-(3-chlorophenyl)-2,5-dihydropyrrole-2-one] | 25.8 | 36.7 |
| 8.02 | 24.5 | – | CCCN1CC(c2ccc(S(C)(=O)=O)cc2)=C(c2ccc(Cl)cc2)C1=O [Example 124, N-Propyl-3-(4-chlorophenyl)-4-(4-methylsulfonylphenyl)-2,5-dihydropyrrole-2-one] | 39.4 | 32.7 |
| 57.2 | 11.8 | 4.9 | CN1CC(c2ccc(S(C)(=O)=O)cc2)=C(c2ccc(Br)cc2)C1=O [Example 119, N-Methyl-3-(4-bromophenyl)-4-(4-methylsulfonylphenyl)-2,5-dihydropyrrole-2-one] | 48 | 49.8 |
| 1120 | 14.2 | 78.9 | CN1CC(c2ccc(S(C)(=O)=O)cc2)=C(c2ccccc2)C1=O [Example 114, N-Methyl-3-phenyl-4-(4-methylsulfonylphenyl)-2,5-dihydropyrrole-2-one] | – | – |

Further lines, the compound ahead of its results:

| Compound | IC50 [1] [nM] | IC50 [2] [nM] | COX-1/COX-2 [2] | inhibition at 10 mg/kg [3, 4] [%] | inhibition at 10 mg/kg [3, 5] [%] |
| --- | --- | --- | --- | --- | --- |
| Cc1ccc(C2=C(c3ccc(S(C)(=O)=O)cc3)C(=O)N(C)C2)cc1 [Example 105, N-Methyl-3-(4-methylsulfonylphenyl)-4-(4-methylphenyl)-2,5-dihydropyrrole-2-one] | > 10000 | 782 | – | 39.2 | 48.2 |
| CCCN1CC(c2ccc(C)cc2)=C(c2ccc(S(C)(=O)=O)cc2)C1=O [Example 104, N-Propyl-3-(4-methylsulfonylphenyl)-4-(4-methylphenyl)-2,5-dihydropyrrole-2-one] | – | – | – | 24.5 | 19.3 |
| CS(=O)(=O)c1ccc(C2=C(c3ccccc3)C(=O)OC2)cc1 [Rofecoxib, reference compound] | > 10000 | 9.57 | – | 45.9 | 50.2 |
| CCCN1CC(c2ccc(S(C)(=O)=O)cc2)=C(c2ccccc2)C1=O [Example 115, N-Propyl-3-phenyl-4-(4-methylsulfonylphenyl)-2,5-dihydropyrrole-2-one] | 149 | 19.5 | 7.6 | 22.8 | 27.2 |
| CS(=O)(=O)c1ccc(C2=C(c3cccc(Cl)c3)CN(C3CC3)C2=O)cc1 [Example 108, N-Cyclopropyl-3-(4-methylsulfonylphenyl)-4-(3-chlorophenyl)-2,5-dihydropyrrole-2-one] | > 10000 | 783 | – | 36.4 | 43.5 |
| CCCN1CC(c2ccc(S(C)(=O)=O)cc2)=C(c2ccc(C)cc2)C1=O [Example 122, N-Propyl-3-(4-methylphenyl)-4-(4-methylsulfonylphenyl)-2,5-dihydropyrrole-2-one] | 91.3 | 15 | – | 57.2 | 59.3 |

Source: patent US7112605B2, “Sulfonyl-containing 3,4-diaryl-3-pyrrolin-2-ones, preparation method, and medical use thereof” (Research Institute of Materia Medica Chinese Acadamy of …, priority 2002, dated 2006)
